Measurements reported in patent publication US20040138241A1, “Novel use of arylethenesulfonamide derivative” (priority 2001, published 2004).
Structures can show the parent of a compound that is named as a salt. Where two headings read alike, the source gives them in different places. Values belong to the molecule of their own block, whether it stands above or below them.

How the values were obtained:
[1] = system: isolated rabbit prostate, urethra and bladder base preparations; test: Concentration-response of agonists in isolated rabbit lower urinary tract preparations; format: biochemical; conditions: cumulative addition
Experimental: Male Japanese white rabbits (from 3 to 5 kg, available from Kitayama Labes Co., Ltd.) were provided for experiments. Prostate, urethra and bladder were isolated from the rabbit to prepare ring preparations of smooth muscle. With respect to the bladder, a dorsal region of the bladder base was used as preparation. Each of the preparations was suspended in an organ bath filled with a Krebs-Henselit solution at 37 ° C., into which was then aerated a 95% O2-5% CO2 gas. A resting tension was subjected as 1g, and a tension change was isometrically measured. Incidentally, the organ bath for preventing adsorption of ET-1 was previously subjected to silicon treatment. After elapse of an equilibrium period for 60 minutes, the preparation was contracted twice by 10 μM phenylephrine hydrochloride to be stabilized the responsibility, and a main experiment was started.
ET-1 (from 0.1 to 1,000 nM), phenylephrine hydrochloride (from 0.01 to 100 μM), S6c (from 1 to 1,000 nM), or acetylcholine (from 0.01 to 1,000 μM) was cumulatively added to the organ bath to obtain a concentration-response curve. […] The contraction response to each agonists was expressed while defining the contraction by phenylephrine hydrochloride (10 μM) as obtained immediately therebefore as 100%.

[2] = system: urethral pressure in anesthetized dogs
Excerpt: Male beagle dogs (body weight: from 8 to 13 kg) were subjected to artificial ventilation under the anesthesia with pentobarbital, a catheter was inserted into a left femoral artery for measurement of blood pressure and heart rate and a left femoral vein for administration of drug. A catheter for measurement of urethral pressure (from 8 to 10Fr, 2 holes, manufactured by Create Medic Co., Ltd.) was inserted from an external urethral meatus toward urinary bladder. An automatic syringe pump was connected with one end of the catheter, and a pressure transducer was connected with the other end thereof. […] At the same time, by drawing out the catheter from the urinary bladder into the external urethral meatus at a rate of 25 mm/min by an automatic drawing unit, the pressure was measured and recorded throughout urethra as a urethral pressure profile (UPP) as shown in FIG. 6.
In the blood pressure-response by ET-1 since the pressure increased after a transient reduction of pressure, measurement of the urethral pressure was started about 3 minutes after the administration. On the other hand, as phenylephrine hydrochloride caused an increase of pressure immediately after the administration, measurement of the urethral pressure was started immediately after the administration.
Three minutes after the administration, ET-1 (1 μg/kg) was again intravenously administered, and an action against the urethral pressure was studied similarly to the time of single administration.

[3] = system: prostatic urethral pressure in anesthetized dogs; format: in vivo, dog; conditions: for EC50 value of increase of PUP, reduced into molar concentration: i.a. local administration, mean±standard error
Experimental: After waiting for stabilization of hemodynamics following the operation, the balloon was fixed to the prostatic urethra and expanded, and a prostatic urethral pressure (PUP) was measured from a change in pressure within the balloon.
ET-1 (from 0.006 to 0.8 μg/kg i.a., molar concentration: from 0.0025 to 0.321 nmol/kg i.a.) and phenylephrine hydrochloride (from 0.06 to 8 μg/kg i.a.; molar concentration: from 0.307 to 39.3 nmol/kg i.a.) were locally administered, thereby comparing the dose-response curve of an increasing action of PUP by the drugs.
In the experiments, dogs in which a degree of increase of PUP was observed 40 cmH2O or more in the pre-contraction with phenylephrine hydrochloride (8 μg/kg i.a.) were used.

[4] = system: urethral pressure in anesthetized dogs; test: ET-1 induced increase of urethral pressure in the presence of α1 receptor blocker in anesthetized dog; format: in vivo; conditions: tamsulosin hydrochloride 10 μg/kg i.v.
Experimental: A urethral pressure profile (UPP) was recorded according to the same operation method as in Test Example 3 .
Thirty minutes thereafter, the same amount of tamsulosin hydrochloride (10 μg/kg i.v.) was again intravenously administered.

[5] = ET-1 1 μg/kg i.v., phenylephrine hydrochloride 30 μg/kg i.v.

Molecule: sarafotoxin S6c [Compound S6c]
contraction of isolated preparations (in words) [1]: not substantially observed

EC50 value of increase of PUP, reduced into molar concentration ([3]; anesthetized dog): 7.47 ± 2.82 nmol/kg
Molecule: CNC[C@H](O)c1cccc(O)c1 [phenylephrine hydrochloride]
action on mean blood pressure [2, 5]: increase of mean blood pressure | action on urethral pressure (UPP) [2, 5]: remarkable increase of the urethral pressure of prostate | degree of increase of PUP relative to ET-1 ([3]; phenylephrine hydrochloride 2 μg/kg i.a. vs ET-1 0.4 μg/kg i.a., typical example): higher about twice

Molecule: CCOc1ccccc1OCCN[C@H](C)Cc1ccc(OC)c(S(N)(=O)=O)c1 [tamsulosin hydrochloride]
action on prostatic urethral pressure ([4]; anesthetized dogs): reduced the prostatic urethral pressure

Molecule: CC[C@H](C)[C@H](NC(=O)[C@H](CC(=O)O)NC(=O)[C@H](CC(C)C)NC(=O)[C@H](Cc1cnc[nH]1)NC(=O)[C@@H]1CSSC[C@H](N)C(=O)N[C@@H](CO)C(=O)N[C@H]2CSSC[C@H](NC(=O)[C@H](CCC(=O)O)NC(=O)[C@H](CCCCN)NC(=O)[C@H](CC(=O)O)NC(=O)[C@H](CCSC)NC(=O)[C@H](CC(C)C)NC(=O)[C@H](CO)NC(=O)[C@H](CO)NC2=O)C(=O)N[C@@H](C(C)C)C(=O)N[C@@H](Cc2ccc(O)cc2)C(=O)N[C@@H](Cc2ccccc2)C(=O)N1)C(=O)N[C@H](C(=O)N[C@@H](Cc1c[nH]c2ccccc12)C(=O)O)[C@@H](C)CC [ET-1]
action on urethral pressure (UPP) [2, 5]: remarkable increase of the pressure throughout urethra other than prostate in addition to an increase of the urethral pressure of prostate | action on mean blood pressure ([2]; dog, in vivo, iv): without substantially affecting the mean blood pressure | action on urethral pressure in the presence of tamsulosin hydrochloride ([4]; ET-1 1 μg/kg i.v.): increased the urethral pressure of the whole of lower urinary tract including prostate | duration of increase response of PUP relative to phenylephrine hydrochloride ([3]; ET-1 0.4 μg/kg i.a. vs phenylephrine hydrochloride 2 μg/kg i.a., typical example): about 3 times | concentration for increasing action of prostatic urethral pressure, times lower than phenylephrine hydrochloride ([3]; anesthetized dog, i.a.): about 100 times | maximum response of PUP, of that of phenylephrine hydrochloride ([3]; anesthetized dog, i.a.): 43.9 ±5.2% | EC50 value of increase of PUP, reduced into molar concentration ([3]; anesthetized dog): 0.08 ± 0.03 nmol/kg
